According to patent publication US7179818B2, “Substituted aminoquinuclidine compounds” (Ortho-McNeil Pharmaceutical, Inc., priority 2002, dated 2007):
Counter-ions that a name gives are not always drawn. Like-named read-outs stand apart in the source and are kept apart here.

Legend:
μ-opioid receptor = biological target: T1, μ-opioid receptor (Rattus norvegicus, UniProt P33535); test: Rat brain μ-opioid receptor binding assay ([3H]DAMGO)
T1 construct: from tissue; host or cells: rat (Wistar) forebrain homogenate, particulate preparation
T1 sequence (P33535 whole entry): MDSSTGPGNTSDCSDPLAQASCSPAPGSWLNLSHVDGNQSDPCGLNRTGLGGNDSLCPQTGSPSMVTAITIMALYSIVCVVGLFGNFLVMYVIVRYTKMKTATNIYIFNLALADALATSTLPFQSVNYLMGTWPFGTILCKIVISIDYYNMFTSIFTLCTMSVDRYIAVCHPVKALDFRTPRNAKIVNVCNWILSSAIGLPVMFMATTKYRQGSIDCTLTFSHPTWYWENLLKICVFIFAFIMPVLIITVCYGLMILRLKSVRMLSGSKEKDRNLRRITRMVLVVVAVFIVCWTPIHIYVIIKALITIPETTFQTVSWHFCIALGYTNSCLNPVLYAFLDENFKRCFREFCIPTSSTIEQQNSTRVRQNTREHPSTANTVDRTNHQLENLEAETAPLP
Method: Male, Wistar rats (150–250 g, VAF, Chades River, Kingston, N.Y.) are killed by cervical dislocation and their brains removed and placed immediately in ice cold Tris HCl buffer (50 mM, pH 7.4). The forebrains are separated from the remainder of the brain by a coronal transection, beginning dorsally at the colliculi and passing ventrally through the midbrain-pontine junction. After dissection, the forebrains are homogenized in Tris buffer in a Teflon®-glass homogenizer. The homogenate is diluted to a concentration of 1 g of forebrain tissue per 100 mL Tris buffer and centrifuged at 39,000×G for 10 min. The pellet is resuspended in the same volume of Tris buffer with several brief pulses from a Polytron homogenizer. This particulate preparation is used for the μ-opioid binding assays. […] The tubes and filters are rinsed three times with 4 mL of 10 mM HEPES (pH 7.4) and the radioactivity associated with the filter circles determined using Formula 989 scintillation fluid (New England Nuclear, Boston, Mass.) in a scintillation counter.
The data are used to calculate either the % inhibition compared to control binding (when only a single concentration of test compound is evaluated) or a Ki value (when a range of concentrations is tested).
% Inhibition is calculated as: […]
(§1) Ki value is calculated using the LIGAND (Munson, P. J. and Rodbard, D., Anal. Biochem. 107: 220–239, 1980) data analysis program.

δ-opioid receptor = biological target: T2, δ-opioid receptor (Rattus norvegicus, UniProt P33533); test: Rat brain δ-opioid receptor binding assay ([3H]DPDPE); conditions: for δ-Opioid Receptor Binding, Inhibition at 1 μM: single concentration 1 μM
T2 construct: from tissue; host or cells: rat (Wistar) forebrain homogenate, particulate preparation
T2 sequence (P33533 whole entry): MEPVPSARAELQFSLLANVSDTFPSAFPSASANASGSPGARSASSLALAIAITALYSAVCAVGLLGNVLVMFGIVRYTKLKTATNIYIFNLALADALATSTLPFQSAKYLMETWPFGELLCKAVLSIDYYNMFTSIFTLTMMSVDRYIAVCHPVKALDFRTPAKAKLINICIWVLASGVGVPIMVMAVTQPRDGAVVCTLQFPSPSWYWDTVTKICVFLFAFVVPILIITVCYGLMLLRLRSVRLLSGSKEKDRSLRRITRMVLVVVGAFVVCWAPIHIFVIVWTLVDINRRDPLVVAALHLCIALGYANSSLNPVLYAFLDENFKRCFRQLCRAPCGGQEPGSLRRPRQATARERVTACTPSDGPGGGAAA
Method: Male, Wistar rats (150–250 g, VAF, Charles River, Kingston, N.Y.) are killed by cervical dislocation, and their brains removed and placed immediately in ice cold Tris HCl buffer (50 mM, pH 7.4). The forebrains are separated from the remainder of the brain by a coronal transection, beginning dorsally at the colliculi and passing ventrally through the midbrain-pontine junction. After dissection, the forebrains are homogenized in Tris buffer in a Teflon®-glass homogenizer. The homogenate is diluted to a concentration of 1 g of forebrain tissue per 100 mL Tris buffer and centrifuged at 39,000×G for 10 min. The pellet is resuspended in the same volume of Tris buffer with several brief pulses from a Polytron homogenizer. This particulate preparation is used for the δ-opioid binding assays. Following incubation with the δ-selective peptide ligand [^3H]DPDPE at 25° C., the tube contents are filtered through Whatman GF/B filter sheets on a Brandel cell harvester. The tubes and filters are rinsed three times with 4 mL of 10 mM HEPES (pH 7.4), and the radioactivity associated with the filter circles determined using Formula 989 scintillation fluid (New England Nuclear, Boston, Mass.) in a scintillation counter.
The data are used to calculate either the % inhibition compared to control binding (when only a single concentration of test compound is evaluated) or a Ki value (when a range of concentrations are tested).
% Inhibition was calculated as: […]
as §1

[1] = system: acetylcholine bromide-induced abdominal constriction response; test: Mouse acetylcholine bromide-induced abdominal constriction assay (MAIT); assay type: in vivo; conditions: 150 μmole/Kg p.o., acetylcholine bromide 5.5 mg/kg i.p. 30 min later
Method: The mouse acetylcholine-induced abdominal constriction assay, as described by Collier et al. in Brit. […] The test drugs or appropriate vehicles were administered orally (p.o.) and 30 min later the animal received an intraperitoneal (i.p.) injection of 5.5 mg/kg acetylcholine bromide (Matheson, Coleman and Bell, East Rutherford, N.J.). The mice were then placed in groups of three into glass bell jars and observed for a ten min observation period for the occurrence of an abdominal constriction response (defined as a wave of constriction and elongation passing caudally along the abdominal wall, accompanied by a twisting of the trunk and followed by extension of the hind limbs). For compounds of the present invention, the percent inhibition of this response to a nociceptive stimulus (equated to °/analgesia) was calculated as follows:
[formula] • CAR: Control Animal Responses • DTAR: Drug-Treated Animal Responses

[2] = rat forebrain membranes, [3H]DAMGO, 25° C., read-out: μ-Opioid Receptor Binding Ki
[3] = rat forebrain membranes, [3H]DPDPE, 25° C., read-out: δ-Opioid Receptor Binding Ki
[4] = rat forebrain membranes, [3H]DPDPE

**Q.** For `CCN(CC)C(=O)c1ccc(N(Cc2ccccc2)C2CN3CCC2CC3)cc1` (centres unmarked) (as salt: fumarate) (hydrate or solvate) [Compound 16, N,N-Diethyl-4-[phenylmethyl-(1-azabicyclo[2.2.2]octan-3-amino)]benzamide Fumarate Hydrate [1:1.5:1]], which melting point is on record?
**A.** 107 to 110 °C

**Q.** For `CCN(CC)C(=O)c1ccc(N(Cc2ccccc2F)C2CN3CCC2CC3)cc1` (centres unmarked) (as salt: fumarate) (hydrate or solvate) [Compound 18], which melting point is on record?
**A.** 193 to 196 °C

**Q.** For `CCN(CC)C(=O)c1ccc(N(Cc2cccc(Cl)c2)C2CN3CCC2CC3)cc1` (centres unmarked) (as salt: fumarate) [Compound 17], which melting point is on record?
**A.** 193 to 196 °C

**Q.** With `CCN(CC)C(=O)c1ccc(N(c2ccccc2)[C@H]2C3CCN(CC3)[C@@H]2C)cc1` [Compound 8, N,N-Diethyl-4-[phenyl-(trans-2-methyl-1-azabicyclo[2.2.2]octan-3-amino)]benzamide Fumarate Hydrate [1:1:0.5]] as the molecule, how does the Ki (μ-opioid receptor; [2]) read?
**A.** 1340 nM

**Q.** And the Ki (δ-opioid receptor; [3])?
**A.** 26 nM

**Q.** Which results are given for `CCN(CC)C(=O)c1ccc(N(Cc2ccccc2)C2CN3CCC2CC3)cc1` (centres unmarked) [Compound 16, N,N-Diethyl-4-[phenylmethyl-(1-azabicyclo[2.2.2]octan-3-amino)]benzamide Fumarate Hydrate [1:1.5:1]]?
**A.** Ki (μ-opioid receptor): 1920 nM; Ki (δ-opioid receptor): 50 nM; MAIT % Inhibition [1]: 50%

**Q.** What does the source list for `CCN(CC)C(=O)c1ccc(N(Cc2cccc(Cl)c2)C2CN3CCC2CC3)cc1` (centres unmarked) [Compound 17]?
**A.** Ki (μ-opioid receptor): 914 nM; Ki (δ-opioid receptor): 21 nM; MAIT % Inhibition [1]: 16.7%

**Q.** Which Ki (μ-opioid receptor) does the source give for `CCN(CC)C(=O)c1ccc(N(Cc2ccccc2F)C2CN3CCC2CC3)cc1` (centres unmarked) [Compound 18] here?
**A.** 1160 nM

**Q.** What about the Ki (δ-opioid receptor) of the same molecule?
**A.** 39 nM

**Q.** And the “MAIT % Inhibition” value [1]?
**A.** 28.6%

**Q.** For `CCN(CC)C(=O)c1ccc(N(Cc2cccc(F)c2)C2CN3CCC2CC3)cc1` (centres unmarked) [Compound 19], which Ki (μ-opioid receptor) is on record?
**A.** 1120 nM

**Q.** What about the Ki (δ-opioid receptor) of the same molecule?
**A.** 5.5 nM

**Q.** What about the “MAIT % Inhibition” value [1] of the same molecule?
**A.** 18.2%

**Q.** What does the source list for `CCN(CC)C(=O)c1ccc(N(Cc2ccccc2)[C@H]2CN3CCC2CC3)cc1` [Compound 20, (−)-(R)-N,N-Diethyl-4-[phenylmethyl-(1-azabicyclo[2.2.2]octan-3-amino)]benzamide Fumarate Hydrate [1:1.5:1]]?
**A.** Ki (μ-opioid receptor): 1240 nM; Ki (δ-opioid receptor): 11 nM; MAIT % Inhibition [1]: 57.1%

**Q.** Which Ki (μ-opioid receptor) does the source give for `CCN(CC)C(=O)c1ccc(N(Cc2ccccc2)[C@@H]2CN3CCC2CC3)cc1` [Compound 21, (+)-(S)-N,N-Diethyl-4-[phenylmethyl-(1-azabicyclo[2.2.2]octan-3-amino)]benzamide Fumarate Hydrate [1:1.5:1]] here?
**A.** 2550 nM

**Q.** What about the Ki (δ-opioid receptor) of the same molecule?
**A.** 20 nM

**Q.** And the “MAIT % Inhibition” value [1]?
**A.** 35.720%

**Q.** Which “δ-Opioid Receptor Binding, Inhibition at 1 μM” value (δ-opioid receptor; [4]) does the source give for “N,N-Diethyl-4-[(3,5-dichlorophenyl)-(1-azabicyclo[2.2.2]octan-3-amino)]benzamide Hydrochloride [Compound 7, N,N-Diethyl-4-[(3,5-dichlorophenyl)-(1-azabicyclo[2.2.2]octan-3-amino)]benzamide Hydrochloride [1:1]]” here?
**A.** <50%

**Q.** With “N,N-Diethyl-4-[(3-thiomethylphenyl)-(trans-2-methyl-1-azabicyclo[2.2.2]octan-3-amino)]benzamide Fumarate [Compound 10, N,N-Diethyl-4-[(3-thiomethylphenyl)-(trans-2-methyl-1-azabicyclo[2.2.2]octan-3-amino)]benzamide Fumarate [1:1.5]]” as the molecule, how does the “MAIT % Inhibition” value [1] read?
**A.** 25%

**Q.** Which “δ-Opioid Receptor Binding, Inhibition at 1 μM” value (δ-opioid receptor; [4]) does the source give for “N,N-Diethyl-4-[(3-trifluoromethylphenyl)-(1-azabicyclo[2.2.2]octan-3-amino)]benzamide Hydrochloride [Compound 4, N,N-Diethyl-4-[(3-trifluoromethylphenyl)-(1-azabicyclo[2.2.2]octan-3-amino)]benzamide Hydrochloride [1:1]]” here?
**A.** <50%

**Q.** Which Ki (δ-opioid receptor; [3]) does the source give for “N,N-Diethyl-4-[phenyl-(1-azabicyclo[2.2.2]octan-3-amino)]-3-chlorobenzamide Fumarate [Compound 13, N,N-Diethyl-4-[phenyl-(1-azabicyclo[2.2.2]octan-3-amino)]-3-chlorobenzamide Fumarate [1:1]]” here?
**A.** 880 nM

**Q.** For “N,N-Diethyl-4-[phenyl-(1-azabicyclo[2.2.2]octan-3-amino)]-3-fluorobenzamide Fumarate [Compound 11, N,N-Diethyl-4-[phenyl-(1-azabicyclo[2.2.2]octan-3-amino)]-3-fluorobenzamide Fumarate [1:1]]”, which Ki (μ-opioid receptor; [2]) is on record?
**A.** 8330 nM

**Q.** And the Ki (δ-opioid receptor; [3])?
**A.** 255 nM

**Q.** Which Ki (μ-opioid receptor; [2]) does the source give for “N,N-Diethyl-4-[phenyl-(1-azabicyclo[2.2.2]octan-3-amino)]-3-methylbenzamide Fumarate [Compound 12, N,N-Diethyl-4-[phenyl-(1-azabicyclo[2.2.2]octan-3-amino)]-3-methylbenzamide Fumarate [1:1]]” here?
**A.** 10000 nM

**Q.** And the Ki (δ-opioid receptor; [3])?
**A.** 608 nM

**Q.** With “N,N-Diethyl-4-[phenyl-(1-azabicyclo[2.2.2]octan-3-amino)]benzamide Fumarate [Compound 1, N,N-Diethyl-4-[phenyl-(1-azabicyclo[2.2.2]octan-3-amino)]benzamide Fumarate [1:1]]” as the molecule, how does the “MAIT % Inhibition” value [1] read?
**A.** 55.6%

**Q.** With “N,N-Diethyl-4-[phenyl-(cis-2-methyl-1-azabicyclo[2.2.2]octan-3-amino)]benzamide [Compound 9]” as the molecule, how does the “MAIT % Inhibition” value [1] read?
**A.** 20%

**Q.** Which “δ-Opioid Receptor Binding, Inhibition at 1 μM” value (δ-opioid receptor; [4]) does the source give for “N-Morpholino-4-[phenyl-(1-azabicyclo[2.2.2]octan-3-amino)]benzamide Fumarate [Compound 15, N-Morpholino-4-[phenyl-(1-azabicyclo[2.2.2]octan-3-amino)]benzamide Fumarate [1:1]]” here?
**A.** <50%

**Q.** For “N-pyrrolidinyl-4-[(4-methoxyphenyl)-(1-azabicyclo[2.2.2]octan-3-amino)]benzamide Fumarate [Compound 14, N-pyrrolidinyl-4-[(4-methoxyphenyl)-(1-azabicyclo[2.2.2]octan-3-amino)]benzamide Fumarate [1:1]]”, which “δ-Opioid Receptor Binding, Inhibition at 1 μM” value (δ-opioid receptor; [4]) is on record?
**A.** <50%
